# Test results reported in ChEMBL document CHEMBL1201862, “PubChem BioAssay data set” (2004).
#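 All cell lines were grown in 96-well plates and treated with compound for 48 hours. Abbreviation: GI50, concentration required for 50% inhibition of growth.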 Calls of active or inactive are those of the source. Rule as the data show it: active = GI50 up to about 1.1 µM and inactive = higher. Where a SMILES comes first, the peptide text is derived from it. [ ]: non-standard residue; d: D form. The star is where a group is joined. NMeF = CN[CH](Cc1ccccc1)C(=O)O; NMeV = CN[CH](C(=O)O)C(C)C; Boc = CC(C)(C)OC(=O)*; OBn = c1ccc(CO*)cc1
# Tests used:
# Assay in all cases: DTP human tumour cell line panel, 48 h
# DLD-1 = tested on: DLD-1
# DMS-114 = tested on: DMS-114
# DMS-273 = tested on: DMS-273
# KM-20L2 = tested on: KM-20L2
# M19-MEL = tested on: M19-MEL
# RXF 631 = tested on: RXF 631
# SNB-78 = tested on: SNB-78
# XF498 = tested on: XF498
# HOP-18 = tested on: HOP-18
Structure (SMILES),GI50 (DLD-1),GI50 (DMS-114),GI50 (DMS-273),GI50 (KM-20L2),GI50 (M19-MEL),GI50 (RXF 631),GI50 (SNB-78),GI50 (XF498),GI50 (HOP-18)
CC(C)(CN1CCCCC1)C(=O)CC(SCCN)c1ccc(Cl)cc1 (configuration not stated),1.59 µM (inactive),1.58 µM (inactive),1.98 µM (inactive),1.67 µM (inactive),2.28 µM (inactive),3.94 µM (inactive),2.56 µM (inactive),1.71 µM (inactive),–
c1ccc(CNn2nnc3ccccc32)cc1,> 100 µM (inactive),> 100 µM (inactive),> 100 µM (inactive),> 100 µM (inactive),> 100 µM (inactive),–,> 100 µM (inactive),> 100 µM (inactive),–
COc1cc(/C=C\c2ccc(C)cc2)cc(OC)c1OC,0.00237 µM (active),0.000266 µM (active),0.0012 µM (active),0.000117 µM (active),0.00197 µM (active),–,0.0001 µM (active),0.00033 µM (active),–
COc1ccc(NC(=O)CC2SC(Nc3ccc(Cl)cc3C)=NC2=O)c([N+](=O)[O-])c1 (configuration not stated),> 100 µM (inactive),> 100 µM (inactive),> 100 µM (inactive),> 100 µM (inactive),> 100 µM (inactive),> 100 µM (inactive),> 100 µM (inactive),–,–
O=c1c2c(c1=O)-c1ccccc1CN2,> 100 µM (inactive),> 100 µM (inactive),> 100 µM (inactive),> 100 µM (inactive),> 100 µM (inactive),–,> 100 µM (inactive),20.6 µM (inactive),–
Cc1cn(C2OC(C)(CO)C(O)C2O)c(=O)[nH]c1=O (configuration not stated),> 100 µM (inactive),> 100 µM (inactive),> 100 µM (inactive),–,> 100 µM (inactive),–,–,–,> 100 µM (inactive)
O=C(Nc1ccc(Cl)cc1C(F)(F)F)C(=O)C1CCCS1(=O)=O (configuration not stated),> 100 µM (inactive),> 100 µM (inactive),–,> 100 µM (inactive),> 100 µM (inactive),–,> 100 µM (inactive),> 100 µM (inactive),> 100 µM (inactive)
N=C(N)NS(=O)(=O)c1ccc(NC(=O)c2ccc(Cl)c3c(Nc4ccc(S(=O)(=O)N=C(N)N)cc4)c4ccccc4nc23)cc1,49.2 µM (inactive),> 100 µM (inactive),> 100 µM (inactive),> 100 µM (inactive),49.8 µM (inactive),> 100 µM (inactive),45 µM (inactive),–,68.1 µM (inactive)
O=Cc1ccccc1COC(=O)c1cc(C(=O)OCc2ccccc2C=O)c(C(=O)OCc2ccccc2C=O)cc1C(=O)OCc1ccccc1C=O,> 100 µM (inactive),49.4 µM (inactive),30.3 µM (inactive),> 100 µM (inactive),> 100 µM (inactive),–,40.7 µM (inactive),> 100 µM (inactive),> 100 µM (inactive)
O=C(OC1CCC(=C2SCCCS2)[C@H]1C1SCCCS1)c1ccccc1 (some centres not stated),> 100 µM (inactive),89.5 µM (inactive),> 100 µM (inactive),> 100 µM (inactive),> 100 µM (inactive),> 100 µM (inactive),–,–,–
O=P1(Oc2ccccc2)C(c2ccccc2)C(c2ccccc2)=NN1c1ccccc1 (configuration not stated),18.3 µM (inactive),19.5 µM (inactive),30.3 µM (inactive),20.7 µM (inactive),23.1 µM (inactive),35.4 µM (inactive),46.5 µM (inactive),43.2 µM (inactive),44.1 µM (inactive)
O=C1C2c3[nH]c4ccccc4c3C3CCCCC3C2C(=O)N1c1ccccc1 (configuration not stated),> 100 µM (inactive),> 100 µM (inactive),85.3 µM (inactive),–,> 100 µM (inactive),> 100 µM (inactive),38.3 µM (inactive),–,37.2 µM (inactive)
Cc1c(C)c([N+](=O)[O-])c2c(c1N)C(=O)c1ccccc1C2=O,> 100 µM (inactive),> 100 µM (inactive),> 100 µM (inactive),> 100 µM (inactive),90.8 µM (inactive),–,> 100 µM (inactive),> 100 µM (inactive),33 µM (inactive)
Cc1nc(-c2cccnc2)sc1C(=O)/C=C/c1ccc(Cl)cc1Cl,> 100 µM (inactive),84.3 µM (inactive),> 100 µM (inactive),> 100 µM (inactive),> 100 µM (inactive),–,> 100 µM (inactive),–,> 100 µM (inactive)
CCC1(CC)C(=O)NC(=O)NC1=S,> 100 µM (inactive),> 100 µM (inactive),> 100 µM (inactive),> 100 µM (inactive),> 100 µM (inactive),–,> 100 µM (inactive),–,> 100 µM (inactive)
CC(=O)O[C@]12CCCC1C1(O)C(O)CCCC12 (some centres not stated),–,> 100 µM (inactive),> 100 µM (inactive),> 100 µM (inactive),> 100 µM (inactive),–,> 100 µM (inactive),> 100 µM (inactive),> 100 µM (inactive)
NC1=NS(=O)(=O)Nc2nc(-c3ccc(Cl)cc3)[nH]c21,> 100 µM (inactive),> 100 µM (inactive),> 100 µM (inactive),> 100 µM (inactive),> 100 µM (inactive),–,–,–,> 100 µM (inactive)
CC(C)OP(=O)(OC(C)C)/C(=N/Nc1ccccc1[N+](=O)[O-])NCCN/C(=N\Nc1ccccc1[N+](=O)[O-])P(=O)(OC(C)C)OC(C)C,34 µM (inactive),31.7 µM (inactive),35.2 µM (inactive),24.9 µM (inactive),34.9 µM (inactive),–,–,–,–
C[C@@](O)(/C=C/[C@H]1CC=CC(=O)O1)[C@@H](C[C@@H](O)\C=C/C=C\C=C\CO)OP(=O)(O)O [FOSTRIECIN SODIUM],13.2 µM (inactive),13 µM (inactive),6.19 µM (inactive),1.03 µM (active),4.17 µM (inactive),–,15 µM (inactive),52.5 µM (inactive),–
O=C(O)c1ccc(C2C3C=CC(C3)C2[N+](=O)[O-])cc1 (configuration not stated),> 100 µM (inactive),> 100 µM (inactive),> 100 µM (inactive),> 100 µM (inactive),> 100 µM (inactive),> 100 µM (inactive),> 100 µM (inactive),> 100 µM (inactive),–
CC(C)C(NC(=O)OC(C)(C)C)C(=O)N(C)C(Cc1ccccc1)C(=O)N(C)C(C(=O)N(C)C(C(=O)OCc1ccccc1)C(C)C)C(C)C (configuration not stated) (Boc-V[NMeF][NMeV][NMeV]-OBn; configuration not given here),–,62.5 µM (inactive),72.8 µM (inactive),> 100 µM (inactive),> 100 µM (inactive),–,–,19.4 µM (inactive),–
[O-][n+]1c2c([n+]([O-])c3ccccc31)CCCCCCCCCC2,> 100 µM (inactive),–,> 100 µM (inactive),17.5 µM (inactive),> 100 µM (inactive),–,> 100 µM (inactive),> 100 µM (inactive),–
